One block for each compound: values may come before it.
Target: T1, Bcl-2 protein (Recombinant Human Bcl-2 Protein) (Homo sapiens, UniProt P10415)
T1 construct: purchased Novus NBP2-34889
Assay: Binding evaluation of mixture library compounds to Bcl-2 using AS-MS (affinity selection mass spectrometry)
Conditions: AS-MS, mixture library, Bcl-2, ASMS Ratio(%)=(A−C)/B×100; for ASMS ratio (%) n = 1: replicate n = 1; for ASMS ratio (%) n = 2: replicate n = 2
How it was run: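 Bcl-2 binding is scored from LC/MS signal retained with protein through gel-filtration spin columns, normalised to unfiltered and protein-free controls. Incubation: 20 μM protein, […] per compound, 1 h, 23° C.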

T1 sequence (P10415 whole entry): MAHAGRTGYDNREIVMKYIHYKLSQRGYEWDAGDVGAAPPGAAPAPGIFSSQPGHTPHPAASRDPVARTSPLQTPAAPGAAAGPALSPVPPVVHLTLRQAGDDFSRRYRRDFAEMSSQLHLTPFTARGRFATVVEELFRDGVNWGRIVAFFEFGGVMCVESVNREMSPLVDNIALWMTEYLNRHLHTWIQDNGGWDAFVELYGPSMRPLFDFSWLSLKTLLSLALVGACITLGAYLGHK

SMILES: CCOc1cncc(C#Cc2cncc(C(=O)N3CCN(c4ccc(C(=O)NS(=O)(=O)CC56CC7CC(CC(C7)C5)C6)cc4)CC3)c2)c1 [B2A032-01, N-(1-Adamantylmethylsulfonyl)-4-[4-[5-[2-(5-ethoxypyridin-3-yl)ethynyl]pyridine-3-carbonyl]piperazin-1-yl]benzamide]
- ASMS ratio (%) n = 1: 0.0%
- ASMS ratio (%) n = 2: 0.0%

SMILES: CCOc1cccc(-c2ccccc2CCC(=O)N2CCN(c3ccc(C(=O)NS(=O)(=O)CC45CC6CC(CC(C6)C4)C5)cc3)CC2)c1 [B2A033-01, N-(1-Adamantylmethylsulfonyl)-4-[4-[3-[2-(3-ethoxyphenyl)phenyl]propanoyl]piperazin-1-yl]benzamide]
- ASMS ratio (%) n = 1: 1.7%
- ASMS ratio (%) n = 2: −4.5%

SMILES: CCOc1cncc(-c2ccccc2CCC(=O)N2CCN(c3ccc(C(=O)NS(=O)(=O)CC45CC6CC(CC(C6)C4)C5)cc3)CC2)c1 [B2A034-01, N-(1-Adamantylmethylsulfonyl)-4-[4-[3-[2-(5-ethoxypyridin-3-yl)phenyl]propanoyl]piperazin-1-yl]benzamide]
- ASMS ratio (%) n = 1: 1.6%
- ASMS ratio (%) n = 2: 0.3%

SMILES: CCOc1cccc(-c2ccc(C(=O)N3CCN(c4ccc(C(=O)NS(=O)(=O)CC56CC7CC(CC(C7)C5)C6)cc4)CC3)c3ccccc23)c1 [B2A035-01, N-(1-Adamantylmethylsulfonyl)-4-[4-[4-(3-ethoxyphenyl)naphthalene-1-carbonyl]piperazin-1-yl]benzamide]
- ASMS ratio (%) n = 1: 6.2%
- ASMS ratio (%) n = 2: −9.8%

SMILES: CCOc1cncc(-c2ccc(C(=O)N3CCN(c4ccc(C(=O)NS(=O)(=O)CC56CC7CC(CC(C7)C5)C6)cc4)CC3)c3ccccc23)c1 [B2A036-01, N-(1-Adamantylmethylsulfonyl)-4-[4-[4-(5-ethoxypyridin-3-yl)naphthalene-1-carbonyl]piperazin-1-yl]benzamide]
- ASMS ratio (%) n = 1: 2.0%
- ASMS ratio (%) n = 2: −0.4%

SMILES: CCOc1cccc(-c2cc(C(=O)N3CCN(c4ccc(C(=O)NS(=O)(=O)CC56CC7CC(CC(C7)C5)C6)cc4)CC3)cc(C(C)(C)C)c2)c1 [B2A037-01, N-(1-Adamantylmethylsulfonyl)-4-[4-[3-tert-butyl-5-(3-ethoxyphenyl)benzoyl]piperazin-1-yl]benzamide]
- ASMS ratio (%) n = 1: 3.0%
- ASMS ratio (%) n = 2: 0.0%

SMILES: CCOc1cncc(-c2cc(C(=O)N3CCN(c4ccc(C(=O)NS(=O)(=O)CC56CC7CC(CC(C7)C5)C6)cc4)CC3)cc(C(C)(C)C)c2)c1 [B2A038-01, N-(1-Adamantylmethylsulfonyl)-4-[4-[3-tert-butyl-5-(5-ethoxypyridin-3-yl)benzoyl]piperazin-1-yl]benzamide]
- ASMS ratio (%) n = 1: 1.8%
- ASMS ratio (%) n = 2: −3.5%

SMILES: CCOc1cccc(-c2cc(C(=O)N3CCN(c4ccc(C(=O)NS(=O)(=O)CC56CC7CC(CC(C7)C5)C6)cc4)CC3)cc(C(F)(F)F)c2)c1 [B2A039-01, N-(1-Adamantylmethylsulfonyl)-4-[4-[3-(3-ethoxyphenyl)-5-(trifluoromethyl)benzoyl]piperazin-1-yl]benzamide]
- ASMS ratio (%) n = 1: 7.4%
- ASMS ratio (%) n = 2: −10.4%

SMILES: CCOc1cncc(-c2cc(C(=O)N3CCN(c4ccc(C(=O)NS(=O)(=O)CC56CC7CC(CC(C7)C5)C6)cc4)CC3)cc(C(F)(F)F)c2)c1 [B2A040-01, N-(1-Adamantylmethylsulfonyl)-4-[4-[3-(5-ethoxypyridin-3-yl)-5-(trifluoromethyl)benzoyl]piperazin-1-yl]benzamide]
- ASMS ratio (%) n = 1: 0.0%
- ASMS ratio (%) n = 2: 0.0%

SMILES: CCOc1cccc(C#Cc2cc(C(=O)N3CCN(c4ccc(C(=O)NS(=O)(=O)CC56CC7CC(CC(C7)C5)C6)cc4)CC3)cc(C(F)(F)F)c2)c1 [B2A041-01, N-(1-Adamantylmethylsulfonyl)-4-[4-[3-[2-(3-ethoxyphenyl)ethynyl]-5-(trifluoromethyl)benzoyl]piperazin-1-yl]benzamide]
- ASMS ratio (%) n = 1: 0.0%
- ASMS ratio (%) n = 2: −3.7%

SMILES: CCOc1cncc(C#Cc2cc(C(=O)N3CCN(c4ccc(C(=O)NS(=O)(=O)CC56CC7CC(CC(C7)C5)C6)cc4)CC3)cc(C(F)(F)F)c2)c1 [B2A042-01, N-(1-Adamantylmethylsulfonyl)-4-[4-[3-[2-(5-ethoxypyridin-3-yl)ethynyl]-5-(trifluoromethyl)benzoyl]piperazin-1-yl]benzamide]
- ASMS ratio (%) n = 1: 10.1%
- ASMS ratio (%) n = 2: −0.9%

SMILES: CCOc1cccc(-c2cnn(-c3cc(C(=O)N4CCN(c5ccc(C(=O)NS(=O)(=O)CC67CC8CC(CC(C8)C6)C7)cc5)CC4)cc(C(F)(F)F)c3)c2)c1 [B2A043-01, N-(1-Adamantylmethylsulfonyl)-4-[4-[3-[4-(3-ethoxyphenyl)pyrazol-1-yl]-5-(trifluoromethyl)benzoyl]piperazin-1-yl]benzamide]
- ASMS ratio (%) n = 1: 14.0%
- ASMS ratio (%) n = 2: 4.4%

SMILES: CCOc1cncc(-c2cnn(-c3cc(C(=O)N4CCN(c5ccc(C(=O)NS(=O)(=O)CC67CC8CC(CC(C8)C6)C7)cc5)CC4)cc(C(F)(F)F)c3)c2)c1 [B2A044-01, N-(1-Adamantylmethylsulfonyl)-4-[4-[3-[4-(5-ethoxypyridin-3-yl)pyrazol-1-yl]-5-(trifluoromethyl)benzoyl]piperazin-1-yl]benzamide]
- ASMS ratio (%) n = 1: 0.7%
- ASMS ratio (%) n = 2: −0.2%

SMILES: CCOc1cccc(-c2ccc(CN3CCN(c4ccc(C(=O)NS(=O)(=O)CC56CC7CC(CC(C7)C5)C6)cc4)CC3)cc2F)c1 [B2A051-01]
- ASMS ratio (%) n = 1: −0.3%
- ASMS ratio (%) n = 2: 3.6%

SMILES: CCOc1cncc(-c2ccc(CN3CCN(c4ccc(C(=O)NS(=O)(=O)CC56CC7CC(CC(C7)C5)C6)cc4)CC3)cc2F)c1 [B2A052-01, N-(1-Adamantylmethylsulfonyl)-4-[4-[[4-(5-ethoxypyridin-3-yl)-3-fluorophenyl]methyl]piperazin-1-yl]benzamide]
- ASMS ratio (%) n = 1: 0.0%
- ASMS ratio (%) n = 2: 0.0%

SMILES: CCOc1cncc(-c2cc(CN3CCN(c4ccc(C(=O)NS(=O)(=O)CC56CC7CC(CC(C7)C5)C6)cc4)CC3)cc(OCC)c2)c1 [B2A056-01, N-(1-Adamantylmethylsulfonyl)-4-[4-[[3-ethoxy-5-(5-ethoxypyridin-3-yl)phenyl]methyl]piperazin-1-yl]benzamide]
- ASMS ratio (%) n = 1: −3.9%
- ASMS ratio (%) n = 2: 0.2%

The remaining lines, values ahead:

- ASMS ratio (%) n = 1: 6.5%
- ASMS ratio (%) n = 2: −2.9%
SMILES: CCOc1cccc(-c2ccccc2CN2CCN(c3ccc(C(=O)NS(=O)(=O)CC45CC6CC(CC(C6)C4)C5)cc3)CC2)c1 [B2A045-01, N-(1-Adamantylmethylsulfonyl)-4-[4-[[2-(3-ethoxyphenyl)phenyl]methyl]piperazin-1-yl]benzamide]

- ASMS ratio (%) n = 1: −2.7%
- ASMS ratio (%) n = 2: −22.1%
SMILES: CCOc1cncc(-c2ccccc2CN2CCN(c3ccc(C(=O)NS(=O)(=O)CC45CC6CC(CC(C6)C4)C5)cc3)CC2)c1 [B2A046-01, N-(1-Adamantylmethylsulfonyl)-4-[4-[[2-(5-ethoxypyridin-3-yl)phenyl]methyl]piperazin-1-yl]benzamide]

- ASMS ratio (%) n = 1: 9.7%
- ASMS ratio (%) n = 2: 0.4%
SMILES: CCOc1cccc(-c2ccc(CN3CCN(c4ccc(C(=O)NS(=O)(=O)CC56CC7CC(CC(C7)C5)C6)cc4)CC3)cc2C)c1 [B2A047-01, N-(1-Adamantylmethylsulfonyl)-4-[4-[[4-(3-ethoxyphenyl)-3-methylphenyl]methyl]piperazin-1-yl]benzamide]

- ASMS ratio (%) n = 1: 18.2%
- ASMS ratio (%) n = 2: 2.1%
SMILES: CCOc1cncc(-c2ccc(CN3CCN(c4ccc(C(=O)NS(=O)(=O)CC56CC7CC(CC(C7)C5)C6)cc4)CC3)cc2C)c1 [B2A048-01, N-(1-Adamantylmethylsulfonyl)-4-[4-[[4-(5-ethoxypyridin-3-yl)-3-methylphenyl]methyl]piperazin-1-yl]benzamide]

- ASMS ratio (%) n = 1: −3.0%
- ASMS ratio (%) n = 2: 6.2%
SMILES: CCOc1cccc(-c2ccc(CN3CCN(c4ccc(C(=O)NS(=O)(=O)CC56CC7CC(CC(C7)C5)C6)cc4)CC3)c(CC)c2)c1 [B2A049-01, N-(1-Adamantylmethylsulfonyl)-4-[4-[[4-(3-ethoxyphenyl)-2-ethylphenyl]methyl]piperazin-1-yl]benzamide]

- ASMS ratio (%) n = 1: −1.1%
- ASMS ratio (%) n = 2: 1.6%
SMILES: CCOc1cncc(-c2ccc(CN3CCN(c4ccc(C(=O)NS(=O)(=O)CC56CC7CC(CC(C7)C5)C6)cc4)CC3)c(CC)c2)c1 [B2A050-01, N-(1-Adamantylmethylsulfonyl)-4-[4-[[4-(5-ethoxypyridin-3-yl)-2-ethylphenyl]methyl]piperazin-1-yl]benzamide]

- ASMS ratio (%) n = 1: 0.0%
- ASMS ratio (%) n = 2: 0.0%
SMILES: CCOc1cccc(-c2ccc(CN3CCN(c4ccc(C(=O)NS(=O)(=O)CC56CC7CC(CC(C7)C5)C6)cc4)CC3)c(OC)c2)c1 [B2A053-01, N-(1-Adamantylmethylsulfonyl)-4-[4-[[4-(3-ethoxyphenyl)-2-methoxyphenyl]methyl]piperazin-1-yl]benzamide]

- ASMS ratio (%) n = 1: 17.5%
- ASMS ratio (%) n = 2: −0.9%
SMILES: CCOc1cncc(-c2ccc(CN3CCN(c4ccc(C(=O)NS(=O)(=O)CC56CC7CC(CC(C7)C5)C6)cc4)CC3)c(OC)c2)c1 [B2A054-01, N-(1-Adamantylmethylsulfonyl)-4-[4-[[4-(5-ethoxypyridin-3-yl)-2-methoxyphenyl]methyl]piperazin-1-yl]benzamide]

- ASMS ratio (%) n = 1: 5.8%
- ASMS ratio (%) n = 2: −7.3%
SMILES: CCOc1cccc(-c2cc(CN3CCN(c4ccc(C(=O)NS(=O)(=O)CC56CC7CC(CC(C7)C5)C6)cc4)CC3)cc(OCC)c2)c1 [B2A055-01, N-(1-Adamantylmethylsulfonyl)-4-[4-[[3-ethoxy-5-(3-ethoxyphenyl)phenyl]methyl]piperazin-1-yl]benzamide]
